Entries after “also recorded” stand apart in the source; their conditions may differ. Counter-ions that a name gives are not always drawn.
Columns and labels:
[1] = test system: C57BL6 mouse model fed HFD or HFHC diet; assay: Efficacy of PKCβ inhibitors on diet-induced obesity and hepatic steatosis in C57BL6 mice; format: in vivo; details: for liver TG levels: diet-fed mice (FIGS. 12H, 12I); for weight gain, intraperitoneal administration / weight gain, oral administration: mice on high fat diet; for weight gain, intraperitoneal administration: i.p. (FIG. 12C); for weight gain, oral administration: oral gavage (FIG. 12D)
Method: FIG. 12E compares food intake in mice fed HFD for and the indicated PKCb inhibitor was administered by i.p. FIG. 12F compares food intake in mice fed HFD and the indicated PKCb inhibitor was administered orally by gavage.
To test and compare therapeutic efficacy of these inhibitors, the following experiment was set up in a C57BL6 mouse model (20 animals per study). C57BL6 mice (7 week old male mice) were fed either HFD or HFHC diet and were either untreated or treated on the same day with an indicated PKCb inhibitor. The PKCb inhibitor was administered to these mice either by i.p. or oral gavage.
The inhibitors were administered by i.p. (FIG. 12C) or gavage (FIG. 12D).

Recombinant PKCβ = Recombinant PKCβ (Homo sapiens, UniProt P05771); assay: PKCb assay: phosphorylation of Histone H3 (Ser10) by recombinant PKCβ, immunoblot, no lipid activator; format: biochemical; details: basal PKCb, lipid activator not included; P-Ser10-Histone H3 by immunoblotting, 30° C., 6 minutes
Method: Recombinant PKCβ (11ng) was mixed with purified Histone H3 (20 ng) and incubated at 30° C. for 6 minutes and phosphorylated Histone H3 (P^ser10-Histone H3) assessed by immunoblotting using specific antibodies (FIG. 11). Lipid activator was not included our assay because we were interested in finding chemicals inhibiting PKCb in its basal state.

[2] = test system: PKCβ activation of SREBP-1c; assay: SREBP-1c transactivation, Gal4-luciferase reporter with constitutively active PKCβ in HepG2 cells; format: cell-based, human; details: LY333,531 5 μM, PD98059 20 μM, GSK690693 1 μM
Method: (Gal4)5-luciferase reporter plasmid (0.6 μg) was co-transfected with a plasmid encoding either Gal4-DNA binding region (Gal4-DBD) or activation domain of SREBP-1 c linked to Gal4-DNA binding domain (Gal4-DBD-SREBP-1AD) (0.3 μg) (23) and pCMV-8-galactosidase (0.1 μg), along with constitutively active PKCβ cDNA (0.1 μg), in human hepatoma HepG2 cells in the absence or presence of LY333,531 (5 μM), PD98059 (20 μM) or GSK690693 (1 μM). Fold induction represens luciferase activity on PKCβ transfection relative to basal expression level in the absence of PKCβ expression vector (taken as 1). Luciferase activity was normalized to β-galactosidase activity.
To determine whether PKCβ deficiency affected the activation of hepatic SREBP-1c, a plasmid was used in which activation domain of SREBP-1c is fused to the Gal4-DBD and evaluated the activation of a Gal4-responsive reporter plasmid by overexpressed PKCβ in the absence or presence of indicated inhibitor.

Sequence of Recombinant PKCβ (P05771 whole entry, species assumed): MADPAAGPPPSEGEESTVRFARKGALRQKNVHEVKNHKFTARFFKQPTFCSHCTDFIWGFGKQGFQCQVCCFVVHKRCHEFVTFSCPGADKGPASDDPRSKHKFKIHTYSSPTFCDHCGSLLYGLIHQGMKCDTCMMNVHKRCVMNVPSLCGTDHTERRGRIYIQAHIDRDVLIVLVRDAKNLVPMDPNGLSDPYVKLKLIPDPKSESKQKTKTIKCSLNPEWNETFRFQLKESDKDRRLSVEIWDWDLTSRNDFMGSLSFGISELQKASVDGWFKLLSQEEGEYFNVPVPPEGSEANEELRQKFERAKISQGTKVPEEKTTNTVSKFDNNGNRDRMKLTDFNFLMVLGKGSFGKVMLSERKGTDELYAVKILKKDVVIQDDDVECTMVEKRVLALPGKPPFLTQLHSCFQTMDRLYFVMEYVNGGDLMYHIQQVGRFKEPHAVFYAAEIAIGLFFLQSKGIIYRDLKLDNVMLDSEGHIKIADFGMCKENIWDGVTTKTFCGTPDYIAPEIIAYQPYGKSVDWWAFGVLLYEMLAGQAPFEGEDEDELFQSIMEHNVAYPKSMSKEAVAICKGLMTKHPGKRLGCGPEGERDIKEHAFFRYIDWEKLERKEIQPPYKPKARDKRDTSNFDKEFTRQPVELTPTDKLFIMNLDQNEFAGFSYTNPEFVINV

IC50 (Recombinant PKCβ) | Structure (SMILES) | liver TG levels [1] | weight gain, intraperitoneal administration [1] | weight gain, oral administration [1] | diet-induced obesity ([1]; mice (FIG. 12G)) | activation of SREBP-1c plasmid by overexpressed PKCβ in presence of inhibitor [2]
50 nM | N#CCCCCCn1cc(C2=C(c3cn(CCCCCC#N)c4ccccc34)C(=O)NC2=O)c2ccccc21 [INST3399] | reduces liver TG levels | reduction in weight gain | caused an increase in weight gain; also recorded: greater weight gain relative to LY333531 | – | –
10 nM | Cn1cc(-c2c(-c3c[nH]c4ccccc34)[nH][nH]c2=O)c2ccccc21 [INST5660] | reducing diet-induced liver triglyceride level | – | – | reducing diet-induced obesity | –
– | CN(C)C[C@@H]1CCn2cc(c3ccccc32)C2=C(C(=O)NC2=O)c2cn(c3ccccc23)CCO1 [LY333531, Ruboxistaurin hydrochloride, reference compound] | – | reduction in weight gain | caused an increase in weight gain | – | this activation was blocked

— patent US20230203017A1, “Protein Kinase C Beta Inhibitors and Uses Thereof” (priority 2021, published 2023)
